Experimental data published in patent US20240010620A1, “ARYLAZABICYCLO[2.1.1]HEXYLMETHANOLS DERIVATIVES AND MEDICAL USES THEREOF” (ATROGI AB, priority 2020, published 2024).

Tests used:
Assay type in all cases: cell-based
L6-myotubes [1] = test: Glucose uptake in the presence of the β2-adrenergic receptor antagonist ICI-118,551; details: differentiated L6-myotubes; compound 1×10^−5 M; ICI-118,551 1×10^−5 M
Method: L6-myoblasts were grown in Dulbecco's Modified Eagle's Medium (DMEM) containing 4,5 g/I glucose supplemented with 10% fetal bovine serum, 2 mM L-Glutamine, 50 U/ml penicillin, 50 μg/ml streptomycin and 10 mM HEPES. Cells were plated at 1×10^5 cells per ml in 24-well plates. After reaching 90% confluence the cells were grown in medium containing 2% FBS for 7 days where upon cells differentiated into myotubes. Differentiated L6-myotubes were serum-starved overnight in medium containing 0.5% fatty-acid free BSA and were incubated with the β2-adrenergic receptor antagonist ICI-118,551 at a final concentration of 1×10^−5 M for 30 min. The cells were stimulated with a compound of the invention, at a final concentration of 1×10^−5 M. After 1 h 40 min the cells were washed twice with warm, glucose free medium or PBS and additional portions of the compound of the invention and the antagonist were added. After 20 min the cells were exposed to 50 nM ^3H-2-deoxyglucose for 10 min before washed with ice cold glucose free medium or PBS three times and lysed with 0.2 M NaOH, 400 μL/well, for 1 h at 60° C. The cell lysate was mixed with 4 mL scintillation buffer (Emulsifier Safe, Perkin Elmer) and the radioactivity was detected in a β-counter (Tri-Carb 4810TR, Perkin Elmer). The activity for each compound is compared to that of isoproterenol.

L6-myotubes [2] = test: Glucose uptake in differentiated L6-myotubes (3H-2-deoxy-glucose); details: agonist final concentration 1×10^−5, 3H-2-deoxy-glucose uptake
Method: L6-myoblasts were grown in Dulbecco's Modified Eagle's Medium (DMEM) containing 4,5 g/I glucose supplemented with 10% fetal bovine serum, 2 mM L-Glutamine, 50 U/ml penicillin, 50 μg/ml streptomycin and 10 mM HEPES. Cells were plated at 1×10^5 cells per ml in 24-well plates. After reaching 90% confluence the cells were grown in medium containing 2% FBS for 7 days where upon cells differentiated into myotubes. Differentiated L6-myotubes were serum-starved over night in medium containing 0.5% fatty-acid free BSA and stimulated with agonist, final concentration 1×10^−5. After 1 h 40 min cells were washed with warm, glucose free medium or PBS and another portion of agonist was added to glucose free medium. After 20 min the cells were exposed to 50 nM ^3H-2-deoxy-glucose for another 10 min before washed in ice cold glucose free medium or PBS and lysed in 0.2 M NaOH for 1 h in 60° C.

L6-myotubes [3] = test: Measurement of intracellular cAMP levels (alpha screen cAMP kit); details: differentiated cells; agonist final concentration 1×10^−5, 15 min; 1 mM IBMX
Method: L6-myoblasts were grown in Dulbecco's Modified Eagle's Medium (DMEM) containing 4,5 g/I glucose supplemented with 10% fetal bovine serum, 2 mM L-Glutamine, 50 U/ml penicillin, 50 μg/ml streptomycin and 10 mM HEPES. Cells were plated at 1×10^5 cells per ml in 24-well plates. After reaching 90% confluence the cells were grown in medium containing 2% FBS for 7 days where upon cells differentiated into myotubes. Differentiated cells were serum-starved over night and stimulated with agonist, final concentration 1×10^−5, for 15 min in stimulation buffer (HBSS supplemented with 1% BSA, 5 mM HEPES and 1 mM IBMX, pH 7.4) The medium was then aspirated and to end the reaction 100 μL of 95% EtOH was added to each well of a 24-well plate and cells were kept in −20° C. over night. The EtOH was let to evaporate and 500 μL of lysis buffer (1% BSA, 5 mM HEPES and 0.3% Tween-20, pH 7.4) was added to each well before put in −80° C. for 30 min and then kept in −20° C. Intracellular cAMP levels were detected using an alpha screen cAMP kit (6760635D from Perkin Elmer). The activity for each compound is compared to that of isoproterenol.

Row | Structure (SMILES) | Biological example 3: glucose uptake in the presence of ICI-118,551, activity compared to that of isoproterenol (L6-myotubes [1]) | Biological example 1: glucose uptake, activity compared to that of isoproterenol (L6-myotubes [2]) | Biological example 2: intracellular cAMP levels, activity compared to that of isoproterenol (L6-myotubes [3])
1 | CC12CC(C1)[C@H]([C@@H](O)c1ccccc1F)N2.Cl [Example 11] | − (less than 25%) | +++ (activity of more than 75% of that of isoproterenol) | − (less than 25%)
2 | CC12CC(C1)[C@@H]([C@H](O)c1cccc(Cl)c1)N2.Cl [Example 8, (R)-(3-Chlorophenyl)((S)-1-methyl-2-azabicyclo[2.1.1]hexan-3-yl)methanol hydrochloride] |  | + (between 50 and 25%) | − (less than 25%)
3 | CC12CC(C1)[C@@H]([C@@H](O)c1cccc(Cl)c1)N2.Cl [Example 6, (S)-(3-Chlorophenyl)((S)-1-methyl-2-azabicyclo[2.1.1]hexan-3-yl)methanol hydrochloride] |  | + (between 50 and 25%) | − (less than 25%)
4 | CC12CC(C1)[C@H]([C@H](O)c1cccc(N)c1F)N2.Cl [Example 17, (R)-(3-Amino-2-fluorophenyl)((R)-1-methyl-2-azabicyclo[2.1.1]hexan-3-yl)methanol hydrochloride] |  | +++ (activity of more than 75% of that of isoproterenol) | − (less than 25%)
5 | CC12CC(C1)[C@@H]([C@@H](O)c1cccc(F)c1)N2.Cl [Example 2, (S)-(3-Fluorophenyl)((S)-1-methyl-2-azabicyclo[2.1.1]hexan-3-yl)methanol hydrochloride] |  | ++ (between 75 and 50%) | − (less than 25%)
6 | CC12CC(C1)[C@H]([C@@H](O)c1cccc(Cl)c1)N2.Cl [Example 7, (S)-(3-Chlorophenyl)((R)-1-methyl-2-azabicyclo[2.1.1]hexan-3-yl)methanol hydrochloride] |  | ++ (between 75 and 50%) | − (less than 25%)
7 | CC12CC(C1)[C@H]([C@@H](O)c1cncc(F)c1)N2 [Example 15, (S)-(5-Fluoropyridin-3-yl)((R)-1-methyl-2-azabicyclo[2.1.1]hexan-3-yl)-methanol] |  | − (less than 25%) | − (less than 25%)
8 | CC12CC(C1)[C@H]([C@@H](O)c1cccc(F)c1)N2.Cl [Example 3, (S)-(3-Fluorophenyl)((R)-1-methyl-2-azabicyclo[2.1.1]hexan-3-yl)methanol hydrochloride] |  | + (between 50 and 25%) | − (less than 25%)
9 | CC12CC(C1)[C@@H]([C@H](O)c1cncc(F)c1)N2 [Example 16, (R)-(5-Fluoropyridin-3-yl)((S)-1-methyl-2-azabicyclo[2.1.1]hexan-3-yl)-methanol] |  | + (between 50 and 25%) | − (less than 25%)
10 | CC12CC(C1)[C@H]([C@H](O)c1cccc(F)c1)N2.Cl [Example 1, (R)-(3-Fluorophenyl)((R)-1-methyl-2-azabicyclo[2.1.1]hexan-3-yl)methanol hydrochloride] |  | +++ (activity of more than 75% of that of isoproterenol) | ++ (between 75 and 50%)
